Patent publication US8735406B2, “8-oxodihydropurine derivative” (Dainippon Sumitomo Pharma Co., Ltd., priority 2009, dated 2014)
Where two headings read alike, the source gives them in different places.

Biological target: T1, FAAH (Rattus norvegicus, UniProt P97612)
T1 construct: Preparation of Rat Brain Membranes Preparations (FAAH Enzyme Solution); from tissue; host or cells: rat cerebrum (brain membrane preparation)
T1 sequence (P97612 1-579): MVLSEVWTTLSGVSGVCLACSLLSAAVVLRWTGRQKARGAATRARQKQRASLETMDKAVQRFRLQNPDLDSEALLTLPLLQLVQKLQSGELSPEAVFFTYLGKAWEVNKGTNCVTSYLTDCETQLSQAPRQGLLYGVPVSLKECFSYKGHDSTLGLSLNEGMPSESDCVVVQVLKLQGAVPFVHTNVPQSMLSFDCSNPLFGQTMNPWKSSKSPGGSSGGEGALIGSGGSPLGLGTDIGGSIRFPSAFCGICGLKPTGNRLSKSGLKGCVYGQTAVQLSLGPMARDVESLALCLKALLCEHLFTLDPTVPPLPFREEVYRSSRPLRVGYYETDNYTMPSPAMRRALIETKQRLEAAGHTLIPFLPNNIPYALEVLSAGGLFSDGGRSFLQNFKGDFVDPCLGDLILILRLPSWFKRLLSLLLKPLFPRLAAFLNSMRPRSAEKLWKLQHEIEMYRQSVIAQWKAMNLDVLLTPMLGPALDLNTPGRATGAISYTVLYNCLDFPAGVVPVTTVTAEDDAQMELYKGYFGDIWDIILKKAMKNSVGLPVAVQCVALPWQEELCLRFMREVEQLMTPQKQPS
Test: Determination of FAAH inhibitory activity in rat (rat brain membrane preparations, [3H]-anandamide hydrolysis)
Type: biochemical
Settings: rat brain membrane preparations; for IC50: read-out: FAAH Inhibition IC50
Protocol: Determination of FAAH Inhibitory Activity in Rat
The preparation of rat brain membranes preparations and the determination of FAAH inhibitory activity were carried out according to the Jonsson et al. method [Br. J. Pharmacol., 133, 1263 (2001)].
(1) Preparation of Rat Brain Membranes Preparations (FAAH Enzyme Solution)
The cerebrum was extracted from rats and was freeze-stored at −80° C. To the frozen cerebrum was added 4° C. enzyme homogenization buffer (20 mM HEPES-buffer pH 7.0, 1 mM MgCl2) and the mixture was homogenized using a homogenizer in ice and the homogenates were centrifuged (36,000×g for 20 minutes). After repeating operations of homogenization and centrifugation, the tissue pellets were re-suspended with 4° C. enzyme homogenization buffer. The re-suspensions were incubated at 37° C. for 15 minutes and were centrifuged (36,000×g for 20 minutes), and the resulting tissue membranes were then re-suspended with enzyme solution preparation buffer (50 mM Tris-HCl buffer pH 7.4, 1 mM EDTA, 3 mM MgCl2). The protein concentration in the resulting membrane preparations were determined according to a colorimetry method (BCA Protein Assay: Pierce Inc.) and the preparations were freeze-stored at −80° C. until used for assay.
(2) Screening of Substances for Inhibiting FAAH Activity
To the above membrane preparations (final concentration 100 μg/mL) were added a solution of test substances in DMSO (final concentration in DMSO 1%) and an assay buffer (for final preparation; 22 mM Tris-HCl (pH 7.6), 1.4 mM EDTA, 1.5% BSA, 0.6 mM MgCl2) and the resulting mixtures were preincubated at 37° C. for 10 minutes. Thereto was added a substrate solution (for final preparation; 2 nM [^3H]-Anandamide (American Radiolabeled Chemicals Inc.)+2 μM Anandamide (Sigma-Aldrich Co.)) (final assay volume of 200 μL) and the resulting mixtures were incubated at 37° C. for 10 minutes. Here in control experiment, DMSO was added instead of the solution of test substance in DMSO. Also in blank experiment, DMSO was added instead of the solution of test substance in DMSO and an enzyme solution preparation buffer was also added instead of the membrane preparations. After the incubation, thereto was added a 400 μL ice-cooled solution of chloroform and methanol (1:1 ratio by volume) and the resulting mixtures were stirred. An ethanolamine (ethanolamine-1-[^3H]) as a decomposed product was separated into an upper layer (water/methanol layer) by centrifugation (1,000×g for 10 minutes). The upper layer 200 μL was transferred into 96 well Deepwell Luma Plate-96 (PerkinElmer Inc.) and the radioactivity was measured by microplate scintillation counter (TopCount NXT™: […].). The substances showing a lower measured value compared to those of control were selected as the compound having a FAAH inhibitory activity.
(3) Determination of IC50 Value
The test substances were prepared such that the final concentration of the compounds is within the range of 0.1 nM to 1 μM and were then examined on the effect on FAAH activity according to the above-mentioned protocol.

[1] = 100 nM test substance, read-out: FAAH Inhibition, Inhibition Rate at 100 nM
[2] = at 100 nM, read-out: FAAH Inhibition Inhibition Rate at 100 nM

inhibition at 0.1 µM [1] [%] | IC50 (test substance 0.1 nM to 1 μM) [µM] | inhibition at 0.1 µM [2] [%] | IC50 [µM] | Structure (SMILES)
55 | 0.082 |  |  | Cc1cccc(-c2ncc3c(n2)n(C(=O)N(C)C)c(=O)n3C)c1 [compound 324]
88 | 0.021 |  |  | COCc1ncc2c(n1)n(C)c(=O)n2C(=O)N1CC(c2cccc(F)c2)C1 [Example 440, 7-{[3-(3-Fluorophenyl)azetidin-1-yl]carbonyl}-2-(methoxymethyl)-9-methyl-7,9-dihydro-8H-purine-8-one]
 |  | 97 | 0.018 | CCCc1ncc2c(n1)n(C)c(=O)n2C(=O)N1CC(c2ccc(F)cc2)C1 [compound 624]
 |  | 86 | 0.015 | CCCn1c(=O)n(C(=O)N2CC(c3ccccc3)C2)c2cnc(COC)nc21 [Example 658, 2-(Methoxymethyl)-7-[(3-phenylazetidin-1-yl)carbonyl]-9-propyl-7,9-dihydro-8H-purine-8-one]
101 | 0.02 |  |  | CCOc1cccc(-c2ncc3c(n2)n(C(=O)N2CCCC2)c(=O)n3C)c1 [Example 232, 2-(3-ethoxyphenyl)-7-methyl-9-(pyrrolidin-1-ylcarbonyl)-7,9-dihydro-8H-purine-8-one]
108 | 0.009 |  |  | COCc1ncc2c(n1)n(C)c(=O)n2C(=O)N1CC(c2cccc(OC)c2)C1 [Example 459, 2-(Methoxymethyl)-7-{[3-(3-methoxyphenyl)azetidin-1-yl]carbonyl}-9-methyl-7,9-dihydro-8H-purine-8-one]
110 | 0.01 |  |  | Cn1c(=O)n(C(=O)N2CCC2)c2nc(CCc3ccc(C(F)F)cc3)ncc21 [Example 576, 9-(Azetidin-1-ylcarbonyl)-2-{2-[4-(difluoromethyl)phenyl]ethyl}-7-methyl-7,9-dihydro-8H-purine-8-one]
94 | 0.044 |  |  | COc1cccc(-c2ncc3c(n2)n(C(=O)N2CCCC2)c(=O)n3C)c1 [Example 230, 2-(3-Methoxyphenyl)-7-methyl-9-(pyrrolidin-1-ylcarbonyl)-7,9-dihydro-8H-purine-8-one]
76 | 0.063 |  |  | CN(C(=O)n1c(=O)n(C)c2nc(-c3ccccc3)ncc21)c1ccccc1 [Example 27]
96 | 0.015 |  |  | Cc1ccc(Cc2ncc3c(n2)n(C(=O)N2CCCC2)c(=O)n3C)cc1 [Example 289, 7-Methyl-2-(4-methylbenzyl)-9-(pyrrolidin-1-ylcarbonyl)-7,9-dihydro-8H-purine-8-one]
83 | 0.066 |  |  | COc1ccc(F)cc1-c1ncc2c(n1)n(C)c(=O)n2C(=O)N1CCCC1 [compound 195]
54 |  |  |  | CCOc1cccc(-c2ncc3c(n2)n(C(=O)N(C)C)c(=O)n3C)c1 [compound 321]
102 | < 0.001 |  |  | CCOc1ccc(N2CCN(C(=O)n3c(=O)n(C)c4nc(-c5ccncc5)ncc43)CC2)cc1 [Example 149, 7-{[4-(4-Ethoxyphenyl)piperazin-1-yl]carbonyl}-9-methyl-2-(pyridin-4-yl)-7,9-dihydro-8H-purine-8-one]
89 | 0.02 |  |  | COCc1ncc2c(n1)n(C)c(=O)n2C(=O)N1CC(c2ccc(OC)cc2)C1 [compound 450]
72 | 0.095 |  |  | COc1ccc(-c2ncc3c(n2)n(C(=O)N2CCC2)c(=O)n3C)cc1 [Example 356, 9-(Azetidin-1-ylcarbonyl)-2-(4-methoxyphenyl)-7-methyl-7,9-dihydro-8H-purine-8-one]
103 | 0.01 |  |  | CCCOc1ccc(CCc2ncc3c(n2)n(C(=O)N(C)C)c(=O)n3C)cc1 [compound 501]
 |  | 90 | 0.017 | CCn1c(=O)n(C(=O)N2CCC2)c2nc(CCc3ccccc3F)ncc21 [Example 649, 9-(Azetidin-1-ylcarbonyl)-7-ethyl-2-[2-(2-fluorophenyl)ethyl]-7,9-dihydro-8H-purine-8-one]
96 | 0.007 |  |  | Cn1c(=O)n(C(=O)N2CCN(c3ccc(C(F)(F)F)cc3)CC2)c2cnc(-c3ccccc3)nc21 [Example 134, 9-Methyl-2-phenyl-7-({4-[4-(trifluoromethyl)phenyl]piperazin-1-yl}carbonyl)-7,9-dihydro-8H-purine-8-one]
84 | 0.008 |  |  | COCCCc1ncc2c(n1)n(C)c(=O)n2C(=O)N1CC(c2ccc(F)cc2)C1 [Example 381]
96 | 0.042 |  |  | Cn1c(=O)n(C(=O)N2CCCC2)c2cnc(Cc3ccc(F)c(F)c3)nc21 [compound 269]
72 | 0.092 |  |  | Cn1c(=O)n(C(=O)N2CCC2)c2nc(-c3cccc(F)c3)ncc21 [compound 353]
100 | 0.007 |  |  | Cn1c(=O)n(C(=O)N2CCCC2)c2cnc(-c3cccc(F)c3F)nc21 [Example 187, 2-(2,3-Difluorophenyl)-9-methyl-7-(pyrrolidin-1-ylcarbonyl)-7,9-dihydro-8H-purine-8-one]
90 | 0.027 |  |  | CN(C)C(=O)n1c(=O)n(C)c2cnc(-c3ccc(OC(F)(F)F)cc3)nc21 [compound 318]
87 | 0.057 |  |  | Cn1c(=O)n(C(=O)N2CCCC2)c2cnc(/C=C/c3ccc(Cl)cc3)nc21 [Example 8, 2-[(E)-2-(4-Chlorophenyl)ethenyl]-9-methyl-7-(pyrrolidin-1-ylcarbonyl)-7,9-dihydro-8H-purine-8-one]
101 | 0.023 |  |  | CN(Cc1ccccc1)C(=O)n1c(=O)n(C)c2nc(-c3ccccc3)ncc21 [Example 34, N-Benzyl-N,9-dimethyl-8-oxo-2-phenyl-8,9-dihydro-7H-purine-7-carboxamide]
101 | 0.007 |  |  | COc1cccc(-c2ncc3c(n2)n(C)c(=O)n3C(=O)N2CCCC2)c1 [Example 173, 2-(3-Methoxyphenyl)-9-methyl-7-(pyrrolidin-1-ylcarbonyl)-7,9-dihydro-8H-purine-8-one]
 |  | 121 | 0.01 | CCCn1c(=O)n(C(=O)N2CC(c3cccc(F)c3)C2)c2cnc(COC)nc21 [Example 660, 7-{[3-(3-Fluorophenyl)azetidin-1-yl]carbonyl}-2-(methoxymethyl)-9-propyl-7,9-dihydro-8H-purine-8-one]
84 | 0.058 |  |  | COc1ccccc1Cc1ncc2c(n1)n(C)c(=O)n2C(=O)N1CCCC1 [compound 260]
99 | 0.006 |  |  | COc1cccc(-c2ncc3c(n2)n(C)c(=O)n3C(=O)N2CCN(c3cccc(C)c3)CC2)c1 [Example 139, 2-(3-Methoxyphenyl)-9-methyl-7-{[4-(3-methylphenyl)piperazin-1-yl]carbonyl}-7,9-dihydro-8H-purine-8-one]
100 | < 0.001 |  |  | CN(CCc1ccc(Cl)cc1)C(=O)n1c(=O)n(C)c2nc(-c3cccnc3)ncc21 [Example 145, N-[2-(4-Chlorophenyl)ethyl]-N,9-dimethyl-8-oxo-2-(pyridin-3-yl)-8,9-dihydro-7H-purine-7-carboxamide]
